What was measured:
Ps. aeruginosa = experiment: Protective activity against lethal infection in mice immunosuppressed with 5-fluorouracil; assay type: in vivo; settings: 5-fluorouracil 25 mg/kg/day × 10 i.p. alone; 4 × 10^4 i.v.
Method: (§1) The effect was further extended against microbial infections in mice immunosuppressed by treatment of a cytostatic. Mice pretreated daily for 10 times with 5-fluorouracil (25 mg/kg/day, i.p.) were infected by either Ps. aeruginosa or C. albicans and the survivals were recorded on day 15.
(§2) C. albicans and Ps. aeruginosa were infected intravenously with 1 ×

C. albicans = experiment: as above; assay type: in vivo; settings: 5-fluorouracil 25 mg/kg/day × 10 i.p. alone; 1 × 10^5 i.v.
Method: as §1, §2

Lewis lung carcinoma [1] = experiment: Suppression of growth of Lewis lung carcinoma metastasized to lung after amputation and cyclophosphamide (Table 7); assay type: in vivo, mice; settings: cyclophosphamide 50 mg/kg i.p. × 1 alone after amputation; day 27
Method: The major problem in the treatment of cancer patient after surgical elimination of tumor is the prevention of metastasis of the tumor.
(§3) Lewis lung carcinoma (1×10^6) was implanted into footpad and at day 10 the advanced tumor was excised by amputation of the leg with the tumor developed. Then the mice were treated with cyclophosphamide (50 mg/kg, i.p.) 24 hrs later and at day 27 the dry weight of the tumor metastasized to lung was measured.

Lewis lung carcinoma [2] = experiment: Survival of mice with Lewis lung carcinoma in combination with cyclophosphamide and surgery (Table 8); assay type: in vivo; settings: cyclophosphamide 50 mg/kg i.p. × 1 alone
Method: as §3
On the other hand, the effect of the peptide on survival of the mice, which were amputated the advanced tumor and treated with cyclophosphamide, was examined. The experimental conditions were identical to the above experiment except that the advanced tumor was excised at day 12 and the mice were treated with cyclophosphamide at day 13.

Compound	Suppressive activity against lethal infection (survivals at day 15) (Ps. aeruginosa)	Suppressive activity against lethal infection (survivals at day 15) (C. albicans)	dry weight of the tumor metastasized (mg ± S.D.) (Lewis lung carcinoma [1]) [mg]	Survivals at day 100 (Lewis lung carcinoma [2])	Mean survival days (Lewis lung carcinoma [2]; days after tumor implantation) [days]
O=c1[nH]cc(F)c(=O)[nH]1 [5-fluorouracil]	2/7	5/35	–	–	–
O=P1(N(CCCl)CCCl)NCCCO1 (centres unmarked) [Cyclophosphamide]	–	–	45.9 ± 30.6	2/12	32.6 ± 3.2

— patent US4452782A, “Pentadecapeptide” (Hoffmann-La Roche Inc., priority 1979, dated 1984)
